Reference: US20170016915A1, “SCREENING TARGETS AND COMPOSITIONS AND METHODS FOR TREATMENT OF CILIOPATHY DISORDERS” (Duke University, priority 2014, published 2017)

Experiments:
[1] = test system: GLI2FL, GLI3FL, SUFU and GLI3R in T8-derived Ofd1^KO neurons; details: 10 μM SFN
Method: (§1) Transfected cells and mouse tissues were lysed in modified RIPA buffer [150 mM sodium chloride, 50 mM Tris-HCl, pH7.4, 1% nonidet P-40, 0.1% sodium deoxycholate, 1 mM EDTA] with 1× proteasome inhibitor (Roche) and centrifuged at 4° C. for 15 minutes. Protein concentration was measured by Lowry assay using the DC Protein Assay Kit (Bio-Rad) on a DU 530 Life Science UV/Vis Spectrophotometer (Beckman Coulter). Total protein in each sample was separated by SDS-PAGE on 4% to 15% Mini-PROTEAN TGX Precast Gel (Bio-Rad) with a Spectra Multicolor Broad Range Protein Ladder (Fermentas) and transferred to an Immun-Blot PVDF Membrane (Bio-Rad). […] Densitometric analysis was performed with Image Lab (Bio-Rad), Quantity One (Bio-Rad), or ImageJ 1.44p (NIH) software.
(§2) HEK-293 or HEK-293-FT cells and human dermal fibroblasts were grown in DMEM (Invitrogen) containing 10% FBS (Invitrogen) and 2 mM L-glutamine (Invitrogen), hTERT-RPE1 cells in DMEM and Ham's F-12 Nutrient 1:1 mixture (DMEM/F-12; Invitrogen) with 10% FBS and 2 mM L-glutamine.

IκBβ = details: BBS4-, BBS1-, or OFD-suppressant cells
Method: as §1, with “software. […]” for “software.”

β-catenin = details: cells depleted of BBS4, relative to vehicle-treated cells; 10 μM SFN
Method: as §1, with “software. […]” for “software.”

[2] = test system: bbs4, bbs1 and ofd1 morphant zebrafish embryos; test: Convergent extension (CE) and somite defects in morphant zebrafish embryos, coinjection; type: in vivo; details: for rescue of defective CE phenotypes, somitic defects, and persistent her4 expression: coinjection
Method: (§3) Morpholinos against bbs1 ([NT] ID NO: 13), bbs4 ([NT] ID NO: 14), and ofd1 ([NT] ID NO: 15) were purchased from Gene Tools, LLC. Human RPN10, RPN13, and RPT6 mRNA were in vitro transcribed with a mMESSAGE mMACHINE SP6 Kit (Ambion). SFN was dissolved in DMSO (Sigma-Aldrich) at a stock concentration of 1 M and further diluted in water to 10 mM. The morpholino and mRNA or SFN were mixed, and a volume of 0.5 nl was microinjected.

[3] = test system: her4 expression (Notch target) in bbs4 morphant zebrafish embryos; test: Whole-mount RNA in situ hybridization of her4 in morphant zebrafish; type: in vivo; details: bbs4 morphants, coinjection, 4.5 dpf
Method: as §3, with “microinjected. Zebrafish embryos were fixed overnight in 4% PFA at 4° C. Residual pigment was removed by bleaching with 3% H2O2/0.5% KOH.” for “microinjected.”

NF-κB signaling = details: TNF-α stimulated cells with pSuperBBS4, pSuperBBS1 or pSuperOFD1; SFN 6 hours
Method: as §2

PSMB5, PSMB6, and PSMB7 = details: upon treatment with sulforaphane (ref. 36); cited from earlier work

With C[S@@+]([O-])CCCCN=C=S [SFN, 1-isothiocyanato-4(R)-methylsulfinylbutane] the GLI3R protein levels [1] was “reduced”, the “accumulation of GLI3FL, GLI2FL, and SUFU” value [1] was “ameliorated” and the “accumulation of GFP-tagged IκBβ” value (IκBβ) was “ameliorated”. The β-catenin protein levels (β-catenin) was “reduction”, the “rescue of defective CE phenotypes, somitic defects, and persistent her4 expression” value ([2]; bbs1 morphants) was “robust rescue” and the “bbs4 morphants with CE and somitic defects” value ([2]; coinjection with bbs4 morpholino, blind scoring at 9±1 ss) was “significant reduction”. For the same compound, the “rescue of defective CE phenotypes, somitic defects, and persistent her4 expression” value ([2]; ofd1 morphants) was “robust rescue”, the “phenotype after injection of the substance alone” value ([2]; zebrafish embryos, no morpholino) was “did not give rise to any obvious phenotype” and the “ectopic expression of her4 in neural structures” value [3] was “ameliorated”. For the same compound, the “NF-κB activity (3X-κB-L luciferase reporter)” value (NF-κB signaling) was “restored” and the “expression levels of PSMB5, PSMB6, and PSMB7 and corresponding peptidase activities” value (PSMB5, PSMB6, and PSMB7) was “increase”.
